Assays:
[1] = tested on: rat F98 glioma cells; assay: Proliferation of rat F98 glioma cells by 3H-TdR incorporation; format: cell-based; conditions: 3 days; for cell growth / proliferation (3H-TdR incorporation): compared to controls; for dose dependency of antiproliferative effect / proliferation: Example 2, FIG. 2; for dose dependency of antiproliferative effect: 500, 50, 5.0 and 0.5 μm; for proliferation: at 500 μm
Method: (§1) αAED, βAED, αAET, and βAET, are commercially available.
(§2) The F98 cells are weakly immunogenic. […] The T9 cell line is tumorgenic and immunogenic.
(§3) During the growth phase, the media was not changed.
(§4) Rat F98 glioma cells and […] glioma cells were grown and cultured as in example 1 above. The cells were cultured in the presence of αAED or βAED in titrated concentrations of 500 μm, 50 μm, 5.0 μm, and 0.5 μm. After 3 days, glioma cell proliferation was measured as described above.
(§5) The cells were cultured in the presence of αAED, βAED, αAET, βAET, or vehicle in titrated concentrations of 400 μm, 200 μm, 100 μm, and 50 μm.

[2] = tested on: human U87 glioma cells; conditions: Example 1, FIG. 1; 500 μm, 3 days, compared to controls
Method: (§6) αAED, βAED, αAET, and βAET, are commercially available. Unless otherwise indicated, all steroids were dissolved in DMSO:ETHOL (1:1 v/v). Stock solutions were refrigerated and brought to room temperature before use. For testing, stock solutions were diluted in media immediately before use.
(§7) The rat F98 cell line was obtained from the American Type Culture Collection (ATCC No. CRL-2397). These cells are tumorgenic and have biological characteristics that closely resemble those of human glioblastoma. The F98 cells are weakly immunogenic. […] The T9 cell line is tumorgenic and immunogenic. The human U-87 cell line was obtained from American Type Culture Collection (ATCC No. HTB-14). These cells are tumorgenic and are derived from malignant gliomas. The human T98 cell line was obtained from the American Type Culture Collection (ATCC No. CRL-1690). These cells are derived from the brain of a subject diagnosed with glioblastoma multiforme.
(§8) Cells were grown in Complete Media (CM) consisting of Dulbecco's Modified Eagle Medium. Cells were initially seeded at a density of 1×10^4 cells per 0.2 ml in 96 well plates and grown at 37° C. During the growth phase, the media was not changed. Proliferation was measured by tritium uptake (as a measure of DNA synthesis). One microcurie (1 μC) was added to the cells and incubated overnight. The 96 well plate was then refrigerated and counted in a topcount cell plate harvester.
(§9) Rat F98 and T9 glioma cells and […] and U87 glioma cells were cultured in 96 well plates at a density of approximately 1×10^4 cells per well. Cells were treated with 500 μm of αAED or βAED or vehicle and cultured for 3 days. The cultures were pulsed with 3H-TdR for the last 15 hours.

[3] = tested on: rat T9 glioma cells; conditions: Example 1, FIG. 1; 500 μm, 3 days, compared to controls
Method: as §6, §7, §8, §9

[4] = tested on: human T98 glioma cells; assay: Proliferation of human T98 glioma cells by 3H-TdR incorporation; format: cell-based; conditions: 3 days; for cell growth / proliferation (3H-TdR incorporation): compared to controls; for dose dependency of antiproliferative effect / proliferation: Example 2, FIG. 2; for dose dependency of antiproliferative effect: 500, 50, 5.0 and 0.5 μm; for proliferation: at 500 μm
Method: as §1, §2, §3, §4, §5

[5] = tested on: rat F98 glioma cells; assay: Morphology of rat F98 glioma cells viewed in situ by microscope; format: cell-based; conditions: Example 3, FIG. 3, 24 hours; for morphological changes compared to vehicle treated cells: 20× magnification
Method: Cells were cultured as described in example 1 for 24 hours. Cells were cultured with […] of αAED, βAED, βAET, and vehicle. After culture, the cells were viewed in situ under 20× magnification using a reverse image microscope.

[6] = tested on: Raw 264.7; conditions: Huynh and Loria, J Leukoc Biol 1997; cited from earlier work
[7] = tested on: murine P388D1; conditions: Huynh and Loria, J Leukoc Biol 1997; cited from earlier work
[8] = tested on: human promyelocytic HL60 cells; conditions: Huynh and Loria, J Leukoc Biol 1997; cited from earlier work
[9] = Example 5, FIG. 5, 400, 200, 100 and 50 μM
[10] = Example 4, FIG. 4, 400, 200, 100 and 50 μM

Molecule | cell growth / proliferation (3H-TdR incorporation) ([1]; Example 1, FIG. 1, 500 μm) | dose dependency of antiproliferative effect [1] | proliferation [1] | cell growth / proliferation (3H-TdR incorporation) [1, 9] | cell growth / proliferation (3H-TdR incorporation) [2] | cell growth / proliferation (3H-TdR incorporation) [3] | cell growth / proliferation (3H-TdR incorporation) ([4]; Example 1, FIG. 1, 500 μm) | dose dependency of antiproliferative effect [4] | proliferation [4] | cell growth / proliferation (3H-TdR incorporation) [4, 10] | morphology of apoptosis (cell shrinkage, rounding, vacuolization, partial detachment, lobulated appearance) [5] | morphological changes compared to vehicle treated cells [5] | proliferation and apoptosis [6] | proliferation and apoptosis [7] | proliferation and apoptosis [8]
5-androstene-3β-17α-diol [αAED] | inhibited cell growth | dose dependent | inhibited the proliferation | significantly inhibited cell growth | inhibited cell growth | inhibited cell growth | inhibited cell growth | dose dependent | inhibited the proliferation | significantly inhibited cell growth | display morphology of apoptasis | most drastic morphological changes | inhibits the proliferation and induces apoptosis | inhibits the proliferation and induces apoptosis | inhibits the proliferation and induces apoptosis
5-androstene-3β-17β-diol [βAED] | inhibited cell growth | dose dependent | inhibited the proliferation | inhibited cell growth | inhibited cell growth | inhibited cell growth | inhibited cell growth | dose dependent | inhibited the proliferation | inhibited cell growth | display morphology of apoptasis | significant morphological changes |  |  | 
C[C@]12CC[C@H]3[C@@H]([C@H](O)C=C4C[C@@H](O)CC[C@@]43C)[C@@H]1CC[C@@H]2O [αAET, 5-androstene-3β-7α-17β-triol] |  |  |  | displayed significant effects on the proliferation |  |  |  |  |  | displayed significant effects on the proliferation |  |  |  |  | 
C[C@]12CC[C@H]3[C@@H]([C@@H](O)C=C4C[C@@H](O)CC[C@@]43C)[C@@H]1CC[C@@H]2O [βAET, 5-androstene-3β-7β-17β-triol] |  |  |  | displayed significant effects on the proliferation |  |  |  |  |  | displayed significant effects on the proliferation | display morphology of apoptasis | significant morphological changes |  |  | 

— patent US20060281720A1, “5-Androstenediol As An Inhibitor of Gliomas” (priority 2005, published 2006)
